Laboratory results taken from patent EP4737449A1 (Changchun Genescience Pharmaceutical Co., Ltd., priority 2023, dated 2025).

Assays:
[1] = Caco-2 cell permeability test; assay type: in vitro ADME; details: human, Caco-2, 10 µM compound; for Papp A→B at 120 min, 10 µM / Papp B→A at 120 min, 10 µM / efflux ratio at 120 min, 10 µM: pH 7.4; for efflux ratio at 120 min, 10 µM: read-out: Efflux rate
Method: • 1) Cell culture: The resuscitated Caco-2 cells were cultured in DMEM culture solution containing 10% FBS, 1% Penicillin-Streptomycin Liquid (100X) and 1% NEAA in an incubator at 37 °C with 5% CO2. The culture medium was replaced every 2-3 days and subculture was carried out when the cell confluence reached about 80%. • 2) Preparation of transport buffer: Transport buffer (pH 7.4) was prepared by adding 5 mL of 1M HEPES to 500 mL of HBSS (with or without BSA) to a final concentration of 10 mM HEPES (with or without BSA). • 3) Before the start of the transport experiment (day 14-28), the culture medium was taken out from the cell culture plate, the plate was washed twice with preheated HBSS buffer (10 mM HEPES, pH 7.4), and 100 µL of HBSS buffer was added into each well. After incubation at 37°C for 30 min, the TEER values were measured by a cell resistance meter (Millicell-ERS2) to confirm the integrity and compactness of the monolayer cells. • 4) The HBSS buffer was discarded, the upper plate containing the cell monolayer membrane was transferred to the corresponding receiving plate, the test compound solution or buffer was added to the top (A side) and the basal side (B side), respectively, the cell plate was placed in the corresponding 96-well receiving plate, and grouping was carried out according to Table 6. The prepared positive control drug, test compound or HBSS (with or without BSA) buffer were added to the A side or B side of the Transwell cell plate filter membrane, and the cell plate was incubated at 37°C. Table 6. Compound grouping scheme
• 1) After incubation for 5 min, a sample was taken from the A and B administration sides, 8 µL each side, and added into 72 µL of transport buffer (diluted 10 times) to serve as T0 of the initial administration solution. • 2) After incubation for 120 min, the samples from both ends of the Transwell cell plate filter membrane were collected, and 80 µL of sample solution was taken from the receiving side to serve as the sample at the receiving side after transport, and 8 µL of sample was taken from the administration side and added into 72 µL of transport buffer to serve as the sample at the administration side after transport. • 3) After collecting the samples from both sides, the plate was gently tapped to discard the remaining solution in the cell plate, the cell plate was rinsed with the transport buffer, 100 µL of acetonitrile solution containing internal standard working solution was added to each well to lyse the cells, the system was pipetted up and down to well mix it, and then 80 µL of cell lysate from each well was measured by pipetting to serve as the sample after cell lysis. • 4) After collecting all samples in the transport system (T0 sample, receiving side sample, and donor side sample), 160 µL of IS/ACN solution was added to each well, 80 µL of IS/ACN solution was added to the collected lysate sample, and then the sample was sealed. • 5) The sample plate was shaken for 10 min, and stored at -20°C before LC-MS/MS analysis. • 6) A standard curve was plotted, and then 8 µL of standard curve solution was taken and mixed with 72 µL of transport buffer and 160 µL of IS/ACN to serve as the standard curve sample. • 7) All the above samples were centrifuged at 6000 RPM for 10 min, 100 µL of supernatant was taken, 100 µL of H2O was added, and the mixture was fully mixed, and analyzed by LC-MS/MS.

[2] = Associated plasma PK in the LU5269 xenograft study; assay type: in vivo, NOD/SCID mice; details: mouse, PO, QD*21, plasma after the last administration
Method: At the endpoint of the experiment, plasma samples from groups G2-G6 were collected: plasma was collected from the first 3 mice in each group at 0 h, 1 h, 2 h, and 4 h after the last administration; plasma was collected from the last 3 mice in each group at 0.5 h, 6 h, 9 h, and 24 h after the last administration.
Table 12 Route, dose and regimen of administration in the subcutaneous xenograft model

BXPC-3 cells = assay: BXPC-3 3D cell proliferation assay (methylcellulose, CTG, 7 days); assay type: cell-based; details: Homo sapiens, 168 h, drug treatment for 7 days
Method: 1 g of methylcellulose was weighed and placed into a glass ware and autoclaved. After cooling, 100 mL of the corresponding culture medium was added, the mixture was mixed vigorously, and stirred on a 4°C magnetic stirrer; the mixture was completely dissolved after 48 h and stored at 4°C.
The cells were resuscitated with the corresponding culture medium, and were maintained to grow to the logarithmic growth phase. The cell suspension was collected and centrifuged at 1000 rpm for 5 min. After centrifugation was completed, the supernatant was removed and the cells were re-suspended with an appropriate amount of culture medium. […]
After adding 10 µL of culture medium containing the vehicle to each well, the CTG plate was read. […] The cell plate was placed at room temperature for 10 min to stabilize the luminescent signal, and the luminescent value was read using EnVision. […]
The CTG reagent was thawed and the cell plate was equilibrated to room temperature for 30 min. […] The cell plate was placed at room temperature for 10 min to stabilize the luminescent signal, and the luminescent value was read using EnVision.
Cell viability was calculated using the following formula: (Vsample- VBlank) /(Vvehicle control- VBlank) ×100%. […] The S-shaped dose-survival curve was plotted and IC50 calculated by GraphPad Prism software using non-linear regression model.

Row | Structure (SMILES) | Papp A→B at 120 min, 10 µM ([1]; 120 min) [×10⁻⁶ cm/s] | Papp B→A at 120 min, 10 µM ([1]; 120 min) [×10⁻⁶ cm/s] | efflux ratio at 120 min, 10 µM [1] | AUC(0-t) ([2]; 50 mg/kg, 50mpk) [ng·h/mL] | Cmax ([2]; 50 mg/kg, 50mpk) [ng/mL] | half-life ([2]; 50 mg/kg, 50mpk) [h] | AUC(0-t) ([2]; 75 mg/kg, 75mpk) [ng·h/mL] | Cmax ([2]; 75 mg/kg, 75mpk) [ng/mL] | AUC(0-t) ([2]; 100 mg/kg, 100 mpk) [ng·h/mL] | Cmax ([2]; 100 mg/kg, 100 mpk) [ng/mL] | half-life ([2]; 100 mg/kg, 100 mpk) [h] | AUC(0-t) ([2]; 150 mg/kg, 150mpk) [ng·h/mL] | Cmax ([2]; 150 mg/kg, 150mpk) [ng/mL] | half-life ([2]; 150 mg/kg, 150mpk) [h] | Papp A→B at 2 h ([1]; 120 min) [×10⁻⁶ cm/s] | Papp B→A at 2 h ([1]; 120 min) [×10⁻⁶ cm/s] | IC50 (BXPC-3 cells) [nM] | AUC(0-t) ([2]; NOD/SCID, 100 mg/kg, 100 mpk) [ng·h/mL] | Cmax ([2]; NOD/SCID, 100 mg/kg, 100 mpk) [ng/mL]
1 | CN1CC[C@@H](Nc2cccc3c(CC(F)(F)F)c(C#CCNC(=O)c4cnn(C(C)(C)C)c4)nn23)[C@@H](F)C1 [Compound 001, 1-tert-butyl-N-[3-(7-{[(3S,4R)-3-fluoro-1-methylpiperidin-4-yl]amino}-3-(2,2,2-trifluoroethyl)pyrazolo[1,5-a]pyridin-2-yl)prop-2-yn-1-yl]-1H-pyrazole-4-carboxamide] | 4.39 | 6.5 | 1.48 | – | – | – | – | – | – | – | – | – | – | – | – | – | – | – | –
2 | CN1CC[C@@H](Nc2cccc3c(CC(F)(F)F)c(C#CCNC(=O)c4cnn(C(C)(C)C)c4N)nn23)[C@@H](F)C1 [Compound 047] | – | – | 1.51 | 11700 | 1690 | 2.2 | 24400 | 2590 | 39400 | 4440 | 1.9 | 68000 | 5550 | 2.6 | 5.18 | 7.8 | 180 | – | –
3 | CNC(=O)c1ccc(NCC#Cc2cc3c(N[C@@H]4CCN(C)C[C@@H]4F)cccc3n2CC(F)(F)F)c(OC)c1 [Control compound, reference compound] | 4.68 | 19.4 | 4.16 | – | – | – | – | – | – | – | – | – | – | – | – | – | 769 | 413000 | 24300
